EPA's ToxValDB 9.5 (doi:10.2903/j.efsa.2013.3147)

What was measured:
Canidae = conditions: oral, Dog Other, clinical chemistry

## COc1cc(C)c(C(=O)c2c(OC)ncc(Cl)c2C)c(OC)c1OC [Pyriofenone]
Anas platyrhynchos; reproductive, reproduction
  NOAEL: 119 mg/kg-day
Anas platyrhynchos; short-term, oral, feed, mortality
  LC50: > 1290 mg/kg-day
Canidae; chronic, duration: 1 years
  NOAEL: 13.7 mg/kg-day
Canidae; subchronic, duration: 90 days
  NOAEL: 15 mg/kg-day
Colinus virginianus; acute, oral, diet, mortality
  LC50: > 980 mg/kg-day
Colinus virginianus; acute, oral, mortality
  LD50: > 2000 mg/kg-day
Colinus virginianus; reproduction developmental, reproduction
  NOAEL: 94 mg/kg-day
Rattus norvegicus; acute, oral, mortality
  LD50: > 2000 mg/kg-day
Rattus norvegicus; chronic, duration: 2 years, hematological
  NOAEL: 7.25 mg/kg-day
Rattus norvegicus; reproduction developmental, hematological
  NOAEL: 64.1 mg/kg-day
Rattus norvegicus; subchronic, duration: 90 days, oral, organ weight
  NOAEL: 17.9 mg/kg-day
